Test results from patent publication US12241085B2, “Human pluripotent stem cell derived neurodegenerative disease models on a microfluidic chip” (priority 2018, dated 2025).

Columns and labels:
[1] = as stated for the marketed drug; cited from earlier work
[2] = tested on: iBMECs co-cultured with primary human astrocytes and pericytes; assay: TNFα perfusion of blood compartment of organ-chip with iBMECs, astrocytes and pericytes; type: cell-based; conditions: 10 or 100 ng/ml overnight in blood compartment
Excerpt: While astrocytes and iBMECs can remain in their respective channels, astrocytes processes protruded through the pores to form direct cell-to-cell contact with the iBMECs, mimicking the astrocyte-end-feet observed in vivo.
In order to quantify the percentage of vascular surface covered with astrocyte protrusions (end-feet like structures), the vascular surface of the are washed in DMEM (without FBS) and stained with the fluorescently labeled wheat germ agglutinin (WGA-647 Invitrogen), a […] able to bind to the vascular glycocalyx (DOI: 10.1002jemt.22602). After 15 minutes at room temperature, chips were rinsed twice with fresh DMEM, fixed in 2% PFA for 20 minutes at room temperature and stained for the astrocyte marker GFAP (Abcam). Following incubation with the anti-mouse secondary antibody (Invitrogen, Alexa Fluor 488) and HOECHS (Abcam) chips were washed in PBS and imaged via confocal microscopy (Zeiss LSM850).
The area underneath the porous membrane was localized using the WGA-647 signal (that stained the whole endothelial surface) and the nuclear fluorescence signal (HOECHST) of endothelial cells. Then, five random areas of each chip were imaged using the GFAP fluorescent (488) signal using a 10× objective (Zeiss). ImageJ software was used to subtract background and then convert the digital signal detected in the GFAP channel into a binary image. Finally, percentage of signal coverage was computed from the binary image as the ratio of bright pixels to the total number of pixels in the image. Image processing and quantification was performed with an automatic macro compiled in ImageJ in order to ensure unbiased signal measurements. Numerical values were collected and statistically analyzed using Graphpad Prism V7.

| Compound | known BBB permeability [1] | blood-to-brain leakage of dextran after vascular stimulation [2] | astrocyte end-feet-like structures covering the vascular surface ([2]; vs control) | astrocyte morphology ([2]; vs control) |
| --- | --- | --- | --- | --- |
| CC[C@@H](C(N)=O)N1CCCC1=O [Levetiracetam] | can efficiently penetrate the BBB |  |  |  |
| TNFα |  | increase in blood-to-brain leakage | decrease in end-feet-like structures | change in astrocyte morphology |
